Results reported in patent US6866833B1, “Substituted thiourea complexing agent and a method for extracting a noble metal from a matrix using the complexing agent” (University College Cork, priority 1999, dated 2005).

Key:
[1] = Supercritical fluid extraction of Au(III) as AuCl4^− from filter paper, gold determined by atomic absorption spectroscopy; conditions: observed after Au(III) SFE runs, 20 mg ligand
Method: Gold Au(III) extraction by the ligand of the comparative Example (a) was investigated employing a BDH Gold (III) standard containing 1000 ppm Au(III) (aqueous AuCl4^−). Thus 60 μl of solution Au(III) containing 3.05×10^−7 moles Au(III) was applied to a 3 cm diameter filter paper. The filter paper was allowed to dry and then placed in a glass tube (2 cm×0.5 cm i.d.), plugged with glass wool at both ends. 20 mg of ligand of the comparative Example (a) (in excess of over 200 fold over Au(III) level) was then placed in the same glass tube and plugged with glass wool.
The extraction vessel was statically extracted for 20 minutes and then dynamically extracted into a collecting solvent of 4 ml methanol for 15 minutes (0.8 ml CO2/minute flow rate). The methanol solution was then made up to 10 ml using additional methanol. Levels of gold in solution were then determined by atomic absorption spectroscopy. The procedure was carried out at different pressures from 200-400 atm. The following extraction percentages were obtained:
The procedure in Example 5(a) was repeated except the temperature of the extraction procedure was varied from 60-120° C., while maintaining the pressure of the extractor at 400 atm. The following results were obtained:
The procedure in Example 6 was repeated with the ligand from Example 1 being used in place of the ligand of the Comparative Example (a). The following % extraction values were obtained at differing pressures for extraction of Au(III):
The procedure of Example 7 was repeated employing the ligand of Example 2 in place of the ligand of Example 1 and utilising 50 μl Au(III) standard solution in place of 60 μl to give the following % extraction results at differing pressures of SF—CO2 at 60° C.

[2] = Solubility of the ligand in supercritical CO2 (weight loss of glass tube after static SFE); assay type: physicochemical; conditions: 60° C.; for Solubility in SF—CO2: approx. 60 mg ligand, 2.2 ml 100% SF—CO2, static 30 minutes, 200 and 300 atmospheres
Method: The solubility of the ligand of the comparative Examples (a)-(c) in supercritical CO2 was compared with the solubilities of the ligands of Examples 1 and 2 and 3 in supercritical CO2.
In each case, a weighed amount of the ligand of the respective comparative Example of approximately 60 mg was placed in a glass tube (2 cm×0.5 cm i.d.) and plugged with glass wool at both ends. The glass tube was placed inside the extraction vessel and statically extracted for 30 minutes. The inlet valve for SF—CO2 was then closed and the outlet valve opened into a collecting solution. The loss of weight of the glass tube after SFE corresponded to the solubility of the ligand in 2.2 ml 100% SF—CO2. The procedure was carried out at 60° C. and two different pressures namely 200 and 300 atmospheres.

Row | Compound | Solubility in SF—CO2 (ligand remaining in glass tube after extraction runs) [1] | Solubility in SF—CO2 [2] | solubility at 30 min ([2]; supercritical CO2, organic solvent or mixture, thermodynamic from solid, larger amounts of ligand, both pressures (200 and 300 atmospheres), read-out: Solubility in SF—CO2)
1 | CCCCCCCCCCCCNC(=S)NC [Comparative Example (c), N-methyl, N′-dodecyl thiourea] | poor solubility |  | 
2 | FC(F)(F)c1cc(NC(=S)NCC(F)(F)C(F)(F)C(F)(F)F)cc(C(F)(F)F)c1 [Example 1] |  | excellent solubility | 
3 | CCCCCCCCNC(=S)NC [Comparative Example (b), N-methyl,N′-octyl thiourea] | poor solubility |  | 
4 | FC(F)(F)c1cc(NC(=S)NCC(F)(F)C(F)(F)C(F)(F)C(F)(F)C(F)(F)C(F)(F)C(F)(F)F)cc(C(F)(F)F)c1 [Example 3(a)] |  | excellent solubility | 
5 | NC(=S)Nc1cc(C(F)(F)F)cc(C(F)(F)F)c1 [Comparative Example (a)] | poor solubility |  | 
6 | FC(F)(F)CNC(=S)Nc1cc(C(F)(F)F)cc(C(F)(F)F)c1 [Example 2] |  | excellent solubility | 
7 | CNC(=S)NCC(F)(F)C(F)(F)C(F)(F)F [Example 3(b), N-methyl, N′-heptafluorobutyl thiourea] |  | excellent solubility | > 700 mM
